Test: mean ionic activity coefficient (dimensionless); mn = molality of the nth substance listed, in mol/kg
Conditions: 298.2 K, 101 kPa, Liquid, potentionmetric method

[Cl-].[Na+] [sodium chloride] + O
Conditions	mean ionic activity coefficient
m1 = 0.001	0.965
m1 = 0.0101	0.902
m1 = 0.0502	0.82
m1 = 0.0993	0.777
m1 = 0.2495	0.718
m1 = 0.4993	0.68
m1 = 0.7496	0.663
m1 = 0.9996	0.655
m1 = 1.249	0.654
m1 = 1.5	0.656
m1 = 1.749	0.66
m1 = 1.999	0.667
m1 = 2.499	0.687
m1 = 3	0.713

— the NIST ThermoML archive (doi:10.1016/j.fluid.2014.07.002)
